Columns and labels:
[1] = tested on: Puccinia recondita f. sp. Tritici; experiment: Puccinia recondita f. sp. tritici / wheat / leaf disc preventative (brown rust); format: in vivo; conditions: foliar, 200 ppm in the applied formulation, wheat leaf segments cv. Kanzler, inoculated 1 day after application, compared to untreated, assessed 7 to 9 days after application, read-out: disease control
Method in brief: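 Wheat cv. Kanzler leaf segments on agar sprayed with diluted compound, inoculated with brown rust spores 1 day later. Kept at 19° C., 75% rh, 12 h light/dark; percent disease control versus untreated segments scored 7 to 9 days after application, compounds tested at 200 ppm.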

[2] = tested on: Puccinia recondita f. sp. Tritici; experiment: Puccinia recondita f. sp. tritici / wheat / leaf disc curative (brown rust); format: in vivo; conditions: foliar, 200 ppm in the applied formulation, wheat leaf segments cv. Kanzler, applied 1 day after inoculation, compared to untreated, assessed 6 to 8 days after application, read-out: disease control
Method in brief: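 Wheat cv. Kanzler leaf segments on agar were inoculated with fungal spore suspension, held dark at 19° C and 75% RH, then sprayed 1 day later with formulated compound diluted in water. Incubation continued at 19° C, 75% RH, 12 h light/12 h dark; percent disease control versus untreated was scored 6 to 8 days after application.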

Phakopsora pachyrhizi = Phakopsora pachyrhizi / soybean / leaf disc preventative (Asian soybean rust); format: in vivo; conditions: foliar, 200 ppm in the applied formulation, soybean leaf disks, inoculated one day after application, compared to untreated, assessed 12 to 14 days after application, read-out: disease control
Method: Leaf disks or leaf segments of various plant species are cut from plants grown in a greenhouse. The cut leaf disks or segments are placed in multiwell plates (24-well format) onto water agar. The leaf disks are sprayed with a test solution before (preventative) or after (curative) inoculation. Compounds to be tested are prepared as DMSO solutions (max. 10 mg/ml) which are diluted to the appropriate concentration with 0.025% Tween20 just before spraying. The inoculated leaf disks or segments are incubated under defined conditions (temperature, relative humidity, light, etc.) according to the respective test system. A single evaluation of disease level is carried out 3 to 14 days after inoculation, depending on the pathosystem. Percent disease control relative to the untreated check leaf disks or segments is then calculated.
Soybean leaf disks are placed on water agar in multiwell plates (24-well format) and sprayed with the formulated test compound diluted in water. One day after application leaf discs are inoculated by spraying a spore suspension on the lower leaf surface. After an incubation period in a climate cabinet of 24-36 hours in darkness at 20° C. and 75% rh leaf disc are kept at 20° C. with 12 h light/day and 75% rh. The activity of a compound is assessed as percent disease control compared to untreated when an appropriate level of disease damage appears in untreated check leaf disks (12 to 14 days after application).
The following compounds at 200 ppm in the applied formulation give at least 80% disease control in this test when compared to untreated control leaf disks under the same conditions, which show extensive disease development.

[3] = tested on: Glomerella lagenarium (Colletotrichum lagenarium); experiment: Glomerella lagenarium (Colletotrichum lagenarium) liquid culture / cucumber / preventative (anthracnose); format: cell-based; conditions: Colletotrichum orbiculare; 20 ppm in the applied formulation; conidia in PDB nutrient broth, 24° C.; 3 to 4 days after application; compared to untreated; read-out: disease control (inhibition of growth measured photometrically)
Method in brief: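 Cryostored conidia in potato dextrose broth added to compound diluted from DMSO solution, 96-well format. Plates incubated at 24 °C. Growth inhibition read photometrically 3 to 4 days after application, as percent activity versus untreated check.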

Row | SMILES | melting point [°C] | pest or weed control at 200 ppm [1] [%] | pest or weed control at 200 ppm [2] [%] | pest or weed control at 200 ppm (Phakopsora pachyrhizi) [%] | inhibition at 20 ppm [3] [%]
1 | CCNS(=O)(=O)N(C)Cc1ccc(-c2noc(C(F)(F)F)n2)cc1 [Compound 1.16, 3-[4-[[ethylsulfamoyl (methyl)amino]methyl]phenyl]-5-(trifluoromethyl)-1,2,4-oxadiazole] | 63 to 66 | ≥ 80 | ≥ 80 | ≥ 80 | ≥ 80
2 | CCNS(=O)(=O)N(Cc1ccc(-c2noc(C(F)(F)F)n2)cc1)C1CC1 [Compound 1.17, 3-[4-[[cyclopropyl (ethylsulfamoyl)amino]methyl]phenyl]-5-(trifluoromethyl)-1,2,4-oxadiazole] | 108 to 110 | ≥ 80 | ≥ 80 | ≥ 80 | ≥ 80
3 | CCN(Cc1ccc(-c2noc(C(F)(F)F)n2)cc1F)S(C)(=O)=O [Compound 1.103, N-ethyl-N-[[2-fluoro-4-[5-(trifluoromethyl)-1,2,4-oxadiazol-3-yl]phenyl]methyl] methanesulfonamide] | 90 to 93 | ≥ 80 | ≥ 80 | ≥ 80 | ≥ 80
4 | CCN(Cc1ccc(-c2noc(C(F)(F)F)n2)c(F)c1F)S(C)(=O)=O [Compound 1.104, N-[[2,3-difluoro-4-[5-(trifluoromethyl)-1,2,4-oxadiazol-3-yl]phenyl]methyl]-N-ethyl-methanesulfonamide] | 81 to 93 | ≥ 80 | ≥ 80 | ≥ 80 | ≥ 80
5 | COCCS(=O)(=O)NCc1ccc(-c2noc(C(F)(F)F)n2)cc1 [Compound 2.1, 2-methoxy-N-[[4-[5-(trifluoromethyl)-1,2,4-oxadiazol-3-yl]phenyl]methyl] ethanesulfon-amide] | 97 to 100 | ≥ 80 | ≥ 80 | ≥ 80 | ≥ 80
6 | CCS(=O)(=O)NCc1ccc(-c2noc(C(F)(F)F)n2)cc1 [Compound 2.2, N-[[4-[5-(trifluoromethyl)-1,2,4-oxadiazol-3-yl]phenyl]methyl] ethanesulfon-amide] | 127 to 129 | ≥ 80 | ≥ 80 | ≥ 80 | ≥ 80
7 | CN(C)S(=O)(=O)NCc1ccc(-c2noc(C(F)(F)F)n2)cc1 [Compound 2.3, 3-[4-[(dimethyl-sulfamoylamino)methyl]phenyl]-5-(trifluoromethyl)-1,2,4-oxadiazole] | 105 to 107 | ≥ 80 | ≥ 80 | ≥ 80 | ≥ 80

Now from value to compound, other results behind:

Row | melting point [°C] | SMILES | pest or weed control at 200 ppm [1] [%] | pest or weed control at 200 ppm [2] [%] | pest or weed control at 200 ppm (Phakopsora pachyrhizi) [%] | inhibition at 20 ppm [3] [%]
8 | 130 to 134 | O=S(=O)(NCc1ccc(-c2noc(C(F)(F)F)n2)cc1)C1CC1 [Compound 3.2, N-[[4-[5-(trifluoromethyl)-1,2,4-oxadiazol-3-yl]phenyl]methyl] cyclopropanesulfon-amide] | ≥ 80 | ≥ 80 | ≥ 80 | ≥ 80
9 | 140 to 144 | O=S(=O)(CC1CC1)NCc1ccc(-c2noc(C(F)(F)F)n2)cc1 [Compound 3.3, 1-cyclopropyl-N-[[4-[5-(trifluoromethyl)-1,2,4-oxadiazol-3-yl]phenyl]methyl] methanesulfonamide] | ≥ 80 | ≥ 80 | ≥ 80 | ≥ 80
10 | 117 to 122 | O=S(=O)(CC1CCOC1)NCc1ccc(-c2noc(C(F)(F)F)n2)cc1 (centres unmarked) [Compound 3.4, 1-tetrahydrofuran-3-yl-N-[[4-[5-(trifluoromethyl)-1,2,4-oxadiazol-3-yl]phenyl]methyl] methanesulfonamide] | ≥ 80 | ≥ 80 | ≥ 80 | ≥ 80

— patent US20210101874A1, “MICROBIOCIDAL OXADIAZOLE DERIVATIVES” (SYNGENTA PARTICIPATIONS AG, priority 2017, published 2021)
